Key:
Design in all cases: scale not given: the % may be the effect or the level left
Sus scrofa = organism: Sus scrofa; assay: Inhibition of […] pig Abl assessed as enzyme activity at 1 uM relative to control
[1] = target: Cyclin-dependent kinase 1/cyclin B1 (Homo sapiens) (UniProt P06493+P14635); assay: Inhibition of human CDK1/cyclinB assessed as enzyme activity at 1 uM relative to control; format: protein-complex assay
[2] = target: Death-associated protein kinase 1 (Homo sapiens) (UniProt P53355); assay: Inhibition of human DAPK1 assessed as enzyme activity at 1 uM relative to control
[3] = target: Serine/threonine-protein kinase 3 (Homo sapiens) (UniProt Q13188); assay: Inhibition of human MST2 assessed as enzyme activity at 1 uM relative to control
[4] = target: Hepatocyte growth factor receptor (Homo sapiens) (UniProt P08581); assay: Inhibition of human Met assessed as enzyme activity at 1 uM relative to control
[5] = target: Protein kinase C theta type (Homo sapiens) (UniProt Q04759); assay: Inhibition of human PKCtheta assessed as enzyme activity at 1 uM relative to control
[6] = target: Ephrin type-A receptor 5 (Homo sapiens) (UniProt P54756); assay: Inhibition of human EphA5 assessed as enzyme activity at 1 uM relative to control
[7] = target: Dual specificity mitogen-activated protein kinase kinase 1 (Homo sapiens) (UniProt Q02750); assay: Inhibition of human MEK1 assessed as enzyme activity at 1 uM relative to control
Sequence of Dual specificity mitogen-activated protein kinase kinase 1 (Homo sapiens) (Q02750 whole entry): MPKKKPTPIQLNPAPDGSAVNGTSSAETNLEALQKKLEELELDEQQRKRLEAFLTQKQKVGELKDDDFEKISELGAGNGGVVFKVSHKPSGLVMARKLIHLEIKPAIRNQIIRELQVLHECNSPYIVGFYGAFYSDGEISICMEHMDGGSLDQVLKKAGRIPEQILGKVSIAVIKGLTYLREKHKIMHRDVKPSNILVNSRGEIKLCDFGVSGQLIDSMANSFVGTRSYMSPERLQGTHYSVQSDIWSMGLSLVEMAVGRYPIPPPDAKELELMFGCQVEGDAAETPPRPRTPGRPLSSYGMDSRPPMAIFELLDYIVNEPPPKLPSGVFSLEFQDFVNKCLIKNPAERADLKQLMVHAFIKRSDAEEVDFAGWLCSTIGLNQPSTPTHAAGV

Sequence of Ephrin type-A receptor 5 (Homo sapiens) (P54756 whole entry): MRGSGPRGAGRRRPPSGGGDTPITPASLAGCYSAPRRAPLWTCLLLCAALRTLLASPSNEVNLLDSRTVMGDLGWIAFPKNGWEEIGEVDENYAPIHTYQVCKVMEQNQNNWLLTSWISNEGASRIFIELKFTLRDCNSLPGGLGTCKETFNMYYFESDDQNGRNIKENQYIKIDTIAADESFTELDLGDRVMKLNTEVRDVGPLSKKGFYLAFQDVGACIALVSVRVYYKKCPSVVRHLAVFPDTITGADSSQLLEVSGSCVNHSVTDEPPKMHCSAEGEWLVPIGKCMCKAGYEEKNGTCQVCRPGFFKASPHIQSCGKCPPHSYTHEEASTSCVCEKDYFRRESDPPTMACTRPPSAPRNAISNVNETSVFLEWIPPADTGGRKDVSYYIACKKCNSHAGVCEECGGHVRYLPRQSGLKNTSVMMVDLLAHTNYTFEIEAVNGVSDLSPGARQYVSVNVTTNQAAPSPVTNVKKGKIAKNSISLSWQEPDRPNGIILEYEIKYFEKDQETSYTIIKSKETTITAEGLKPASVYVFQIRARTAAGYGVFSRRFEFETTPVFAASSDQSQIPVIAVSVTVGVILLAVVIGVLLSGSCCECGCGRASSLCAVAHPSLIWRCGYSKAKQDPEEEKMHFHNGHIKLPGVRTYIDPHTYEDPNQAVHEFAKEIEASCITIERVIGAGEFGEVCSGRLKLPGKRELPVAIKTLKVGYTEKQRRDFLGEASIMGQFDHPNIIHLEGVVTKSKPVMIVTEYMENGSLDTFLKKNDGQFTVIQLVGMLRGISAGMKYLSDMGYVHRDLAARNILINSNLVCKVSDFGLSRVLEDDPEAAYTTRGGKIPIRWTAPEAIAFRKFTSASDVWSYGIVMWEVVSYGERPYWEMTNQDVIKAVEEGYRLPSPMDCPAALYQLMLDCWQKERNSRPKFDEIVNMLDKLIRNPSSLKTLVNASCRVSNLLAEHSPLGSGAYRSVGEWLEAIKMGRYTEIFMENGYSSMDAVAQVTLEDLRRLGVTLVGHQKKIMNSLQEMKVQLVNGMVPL
Sequence of Serine/threonine-protein kinase 3 (Homo sapiens) (Q13188 whole entry): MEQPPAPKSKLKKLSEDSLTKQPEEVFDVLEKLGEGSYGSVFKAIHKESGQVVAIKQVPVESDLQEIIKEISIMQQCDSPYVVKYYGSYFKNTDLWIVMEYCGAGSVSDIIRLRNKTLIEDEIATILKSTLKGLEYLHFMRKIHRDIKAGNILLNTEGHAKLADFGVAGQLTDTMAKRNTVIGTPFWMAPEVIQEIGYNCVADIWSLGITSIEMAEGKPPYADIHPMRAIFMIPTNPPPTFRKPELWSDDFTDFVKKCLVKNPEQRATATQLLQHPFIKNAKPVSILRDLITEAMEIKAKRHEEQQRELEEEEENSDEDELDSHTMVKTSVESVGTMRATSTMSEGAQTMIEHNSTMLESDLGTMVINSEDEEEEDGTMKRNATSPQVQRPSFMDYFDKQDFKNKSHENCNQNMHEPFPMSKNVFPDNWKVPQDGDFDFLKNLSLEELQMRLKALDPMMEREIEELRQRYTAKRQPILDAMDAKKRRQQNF
Sequence of Protein kinase C theta type (Homo sapiens) (Q04759 whole entry, looked up): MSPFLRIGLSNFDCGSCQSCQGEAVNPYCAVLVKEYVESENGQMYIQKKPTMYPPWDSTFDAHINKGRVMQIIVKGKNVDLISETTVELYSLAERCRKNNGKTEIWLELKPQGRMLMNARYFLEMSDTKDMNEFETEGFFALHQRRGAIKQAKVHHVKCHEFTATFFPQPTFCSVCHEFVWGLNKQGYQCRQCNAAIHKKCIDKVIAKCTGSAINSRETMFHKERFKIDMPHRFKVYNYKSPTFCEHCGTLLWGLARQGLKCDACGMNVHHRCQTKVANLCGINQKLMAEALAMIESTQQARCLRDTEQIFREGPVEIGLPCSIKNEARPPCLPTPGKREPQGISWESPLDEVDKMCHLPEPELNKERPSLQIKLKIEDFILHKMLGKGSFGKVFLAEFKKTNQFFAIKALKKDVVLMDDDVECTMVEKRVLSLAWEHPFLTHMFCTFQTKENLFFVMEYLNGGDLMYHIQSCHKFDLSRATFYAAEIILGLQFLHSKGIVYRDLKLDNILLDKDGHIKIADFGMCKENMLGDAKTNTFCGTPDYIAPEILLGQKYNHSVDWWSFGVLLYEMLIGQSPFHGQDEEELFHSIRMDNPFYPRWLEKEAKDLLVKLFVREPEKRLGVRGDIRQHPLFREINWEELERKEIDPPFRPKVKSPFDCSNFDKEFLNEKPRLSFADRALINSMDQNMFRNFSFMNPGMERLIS
Sequence of Cyclin-dependent kinase 1/cyclin B1 (Homo sapiens) (P06493 whole entry, looked up): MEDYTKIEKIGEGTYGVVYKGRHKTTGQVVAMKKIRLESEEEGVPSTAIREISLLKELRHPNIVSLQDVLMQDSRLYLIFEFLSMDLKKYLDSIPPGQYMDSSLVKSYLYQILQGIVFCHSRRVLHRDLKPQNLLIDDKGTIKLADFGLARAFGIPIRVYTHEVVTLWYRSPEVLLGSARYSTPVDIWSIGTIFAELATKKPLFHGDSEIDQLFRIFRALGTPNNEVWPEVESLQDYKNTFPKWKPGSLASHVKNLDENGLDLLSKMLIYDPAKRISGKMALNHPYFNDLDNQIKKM
Sequence of Cyclin-dependent kinase 1/cyclin B1 (Homo sapiens) (P14635 whole entry, looked up): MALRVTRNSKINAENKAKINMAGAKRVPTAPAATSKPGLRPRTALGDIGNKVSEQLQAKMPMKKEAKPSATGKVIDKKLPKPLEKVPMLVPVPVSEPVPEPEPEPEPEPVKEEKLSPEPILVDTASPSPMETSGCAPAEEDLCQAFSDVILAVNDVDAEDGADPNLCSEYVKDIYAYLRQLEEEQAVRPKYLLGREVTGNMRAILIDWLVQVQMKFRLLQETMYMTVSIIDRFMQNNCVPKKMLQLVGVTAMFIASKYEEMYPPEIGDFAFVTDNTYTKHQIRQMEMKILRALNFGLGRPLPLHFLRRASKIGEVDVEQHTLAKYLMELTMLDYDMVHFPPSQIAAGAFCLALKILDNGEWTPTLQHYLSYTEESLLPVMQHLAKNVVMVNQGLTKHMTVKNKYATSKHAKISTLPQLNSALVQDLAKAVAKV
Sequence of Death-associated protein kinase 1 (Homo sapiens) (P53355 whole entry, looked up): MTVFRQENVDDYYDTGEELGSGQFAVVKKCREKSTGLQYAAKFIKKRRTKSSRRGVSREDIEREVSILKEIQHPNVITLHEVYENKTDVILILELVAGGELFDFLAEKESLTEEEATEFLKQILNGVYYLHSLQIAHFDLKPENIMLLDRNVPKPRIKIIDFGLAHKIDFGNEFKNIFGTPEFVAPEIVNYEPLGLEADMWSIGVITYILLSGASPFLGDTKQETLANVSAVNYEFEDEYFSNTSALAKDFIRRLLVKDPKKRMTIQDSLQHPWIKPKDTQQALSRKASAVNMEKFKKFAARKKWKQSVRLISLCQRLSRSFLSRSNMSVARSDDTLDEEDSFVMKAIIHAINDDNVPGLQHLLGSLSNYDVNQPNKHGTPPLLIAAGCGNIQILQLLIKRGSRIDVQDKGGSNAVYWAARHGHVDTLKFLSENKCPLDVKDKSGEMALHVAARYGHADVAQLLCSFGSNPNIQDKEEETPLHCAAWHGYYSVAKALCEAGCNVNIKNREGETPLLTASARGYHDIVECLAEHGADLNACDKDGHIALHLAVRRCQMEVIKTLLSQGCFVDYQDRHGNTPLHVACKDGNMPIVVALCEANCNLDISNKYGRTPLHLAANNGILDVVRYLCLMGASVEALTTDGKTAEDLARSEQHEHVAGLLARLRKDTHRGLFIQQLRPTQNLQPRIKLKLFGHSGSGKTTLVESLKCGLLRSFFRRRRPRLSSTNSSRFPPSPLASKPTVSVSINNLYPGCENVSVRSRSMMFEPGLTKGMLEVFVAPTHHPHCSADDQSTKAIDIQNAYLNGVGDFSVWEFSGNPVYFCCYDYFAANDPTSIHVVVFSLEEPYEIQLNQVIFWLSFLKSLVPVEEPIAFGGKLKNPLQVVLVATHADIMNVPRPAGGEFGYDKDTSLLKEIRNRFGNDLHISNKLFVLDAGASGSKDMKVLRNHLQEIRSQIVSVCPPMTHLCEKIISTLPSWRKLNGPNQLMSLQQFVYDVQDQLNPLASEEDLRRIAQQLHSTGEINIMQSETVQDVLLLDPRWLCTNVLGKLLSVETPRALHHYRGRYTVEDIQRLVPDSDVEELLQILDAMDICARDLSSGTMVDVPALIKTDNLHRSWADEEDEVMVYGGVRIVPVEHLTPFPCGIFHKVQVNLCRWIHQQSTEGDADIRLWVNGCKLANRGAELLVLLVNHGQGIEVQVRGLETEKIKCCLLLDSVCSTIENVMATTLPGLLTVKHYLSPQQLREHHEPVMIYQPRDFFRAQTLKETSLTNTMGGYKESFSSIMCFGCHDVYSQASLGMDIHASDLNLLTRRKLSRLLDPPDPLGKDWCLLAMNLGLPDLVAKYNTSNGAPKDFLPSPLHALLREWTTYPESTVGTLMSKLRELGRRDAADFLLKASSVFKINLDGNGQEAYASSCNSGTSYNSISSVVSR

Activity (Sus scrofa): 93%
Activity [1]: 103%
Activity [3]: 99.5%
Activity [4]: 104%
Activity [5]: 97.5%
Activity [6]: 103%
Activity [7]: 97%
SMILES: CCCS(=O)(=O)Nc1cccc(Nc2ccc3ncn(C)c(=O)c3c2)c1C#N
Activity [2]: 102%

— ChEMBL document CHEMBL3232845 (Bioorg Med Chem Lett, 2014)
